{"source": "patent US10206906B2", "about": "“Synergistic combination of a phenolic-rich maple syrup extract and an antibiotic” (priority 2015, dated 2019)", "key": {"[1]": {"system": "outer membrane of P. aeruginosa PAO1", "assay": "Outer membrane permeabilization, NPN uptake assay", "format": "cell-based, Pseudomonas aeruginosa", "conditions": "positive control gentamicin, above and below MICs", "procedure": "(§1) The cells are harvested, washed with 5 mM HEPES buffer (pH 7.2), and resuspended in the same volume (10 mL) of 5 mM HEPES buffer (pH 7.2) containing 1 mM N-ethylmaleimide (NEM, Sigma-Aldrich Canada). Aliquots (1 mL) are mixed with NPN to a final concentration of 10 μM (in cell suspension) and fluorescence is measured using the microplate reader (ex/em 350/420 nm)."}, "[2]": {"system": "outer membrane of P. aeruginosa PA14", "assay": "Outer membrane permeabilization, NPN uptake assay", "format": "cell-based, Pseudomonas aeruginosa", "conditions": "positive control gentamicin, above and below MICs", "procedure": "as §1"}, "[3]": {"system": "outer membrane of P. mirabilis HI4320", "assay": "Outer membrane permeabilization, NPN uptake assay", "format": "cell-based, Proteus mirabilis", "conditions": "positive control gentamicin, above and below MICs", "procedure": "as §1"}, "[4]": {"system": "outer membrane of E. coli CFT073", "assay": "Outer membrane permeabilization, NPN uptake assay", "format": "cell-based, Escherichia coli", "conditions": "positive control gentamicin, above and below MICs", "procedure": "as §1"}, "P. aeruginosa PA14 [5]": {"system": "P. aeruginosa PA14", "assay": "Determination of minimum inhibitory concentration (MIC)", "format": "cell-based", "conditions": "Pseudomonas aeruginosa, read-out: MIC", "procedure": "(§2) A range of concentration of antibiotics, ciprofloxacin (0.0003-0.25 μg mL^−1) and carbenicillin (0.5-512 μg mL^−1), are chosen due to their known potency against all four bacterial strains. Dilutions are prepared in flat bottom, 96 well microtitre plates (Falcon™, Corning™, Fisher Scientific, ON, Canada). Each well of a microtitre plate is then inoculated with the desired bacterial strain (grown in MHB-II and diluted to […]) and the plate is incubated at 37° C. for 18 h under static conditions. Bacterial growth is assessed by (i) monitoring the optical density of the cell suspension in each well at 600 nm (OD600 nm), and (ii) the resazurin microtitre plate assay. In the resazurin microtitre plate assay, each well of a microtitre plate is supplemented with 20 μM resazurin, incubated in the dark for 20 min at room temperature, followed by fluorescence measurements at ex/em 570/590 nm using a TECAN Infinite M200 Pro microplate reader (Tecan Group Ltd., Switzerland). The lowest concentration of a compound able to prevent increase in OD600 nm and resazurin fluorescence intensity is recorded as the MIC for that compound."}, "P. aeruginosa PAO1 [6]": {"system": "P. aeruginosa PAO1", "assay": "Determination of minimum inhibitory concentration (MIC)", "format": "cell-based", "conditions": "Pseudomonas aeruginosa, read-out: MIC", "procedure": "as §2"}, "P. aeruginosa PA14 [7]": {"system": "P. aeruginosa PA14", "assay": "Checkerboard microdilution assay (growth inhibition synergy)", "format": "cell-based, Pseudomonas aeruginosa", "procedure": "(§3) The checkerboard microdilution assay is used for evaluation of in vitro antimicrobial synergy between two compounds (i.e., antibiotic/PRMSE, antibiotic/pure phenolic compound, and pure phenolic compounds with each other). Two-fold serial dilutions are prepared in MHB-II for each of the two compounds under study. The serial dilutions are then loaded into 96 well plates to achieve combinations having different concentrations of each of the two compounds. Each well is subsequently inoculated with 10^6 CFU mL^−1 of the desired bacterial strain and incubated at 37° C. for 18 h under static conditions. The Fractional Inhibitory Concentration Index (FICI) for each combination is calculated by using the following formula: FICcomponent 1=MICcomponent 1, in combination/MICcomponent 1,alone FICI=FICcomponent 1+FICcomponent 2\n(§4) The FICIs are interpreted as follows: FICI of […] (synergy); 0.5<FICI ≤1 (no interaction/indifference); FICI of >4 (antagonism)."}, "P. aeruginosa PAO1 [8]": {"system": "P. aeruginosa PAO1", "assay": "Checkerboard microdilution assay (growth inhibition synergy)", "format": "cell-based, Pseudomonas aeruginosa", "procedure": "as §3, §4"}, "P. mirabilis HI4320 [9]": {"system": "P. mirabilis HI4320", "assay": "Determination of minimum inhibitory concentration (MIC)", "format": "cell-based", "conditions": "Proteus mirabilis, HI4320, 18 h; read-out: MIC", "procedure": "as §2"}, "E. coli CFT073 [10]": {"system": "E. coli CFT073", "assay": "Determination of minimum inhibitory concentration (MIC)", "format": "cell-based", "conditions": "Escherichia coli, CFT073, 18 h; read-out: MIC", "procedure": "as §2"}, "P. mirabilis HI4320 [11]": {"system": "P. mirabilis HI4320", "assay": "Checkerboard microdilution assay (growth inhibition synergy)", "format": "cell-based, Proteus mirabilis", "procedure": "as §3, §4"}, "E. coli CFT073 [12]": {"system": "E. coli CFT073", "assay": "Checkerboard microdilution assay (growth inhibition synergy)", "format": "cell-based, Escherichia coli", "procedure": "as §3, §4"}, "[13]": {"conditions": "carbenicillin/PRMSE combination, FIC of the labelled component"}, "[14]": {"conditions": "ciprofloxacin in combination with the labelled phenolic constituent"}, "[15]": {"conditions": "labelled constituent + catechol, * = synergistic"}, "[16]": {"conditions": "labelled constituent + gallic acid, * = synergistic"}, "[17]": {"conditions": "labelled constituent combined with catechol"}, "[18]": {"conditions": "labelled constituent combined with gallic acid"}, "[19]": {"conditions": "labelled phenolic constituent + ciprofloxacin, * = synergistic interaction"}, "[20]": {"conditions": "labelled phenolic constituent in combination with ciprofloxacin"}}, "note": "Where two headings read alike, the source gives them in different places.", "data": [{"compound": "gentamicin [reference compound]", "values": [{"measurement": "Minimum permeabilization concentration", "setting": "[1]", "value": 1, "unit": "µg/mL"}, {"measurement": "Minimum permeabilization concentration", "setting": "[2]", "value": 1, "unit": "µg/mL"}, {"measurement": "Minimum permeabilization concentration", "setting": "[3]", "value": 0.013, "unit": "µg/mL"}, {"measurement": "Minimum permeabilization concentration (NPN assay)", "setting": "[4]", "value": 0.006, "unit": "µg/mL"}]}, {"compound": "CC1(C)S[C@@H]2[C@H](NC(=O)C(C(=O)O)c3ccccc3)C(=O)N2[C@H]1C(=O)O", "note": "(stereo partly shown) [carbenicillin, reference compound]", "values": [{"measurement": "MIC", "setting": "P. aeruginosa PA14 [5]; PA14, antibiotic alone, MHB-II, 37° C., 18 h", "value": 128, "unit": "µg/mL"}, {"measurement": "MIC", "setting": "P. aeruginosa PAO1 [6]; PAO1, antibiotic alone, MHB-II, 37° C., 18 h", "value": 64, "unit": "µg/mL"}, {"measurement": "FIC", "setting": "P. aeruginosa PA14 [7]; [13]", "value": 0.063}, {"measurement": "FIC", "setting": "P. aeruginosa PAO1 [8]; [13]", "value": 0.13}]}, {"compound": "O=Cc1ccc(O)c(O)c1", "note": "[catechaldehyde, 3,4-dihydroxybenzaldehyde]", "values": [{"measurement": "MIC", "setting": "P. mirabilis HI4320 [9]", "value": 1250, "unit": "µg/mL"}, {"measurement": "MIC", "setting": "P. aeruginosa PA14 [5]; PA14, 18 h", "value": 1250, "unit": "µg/mL"}, {"measurement": "MIC", "setting": "P. aeruginosa PAO1 [6]; PAO1, 18 h", "value": 1250, "unit": "µg/mL"}, {"measurement": "MIC", "setting": "E. coli CFT073 [10]", "value": 1250, "unit": "µg/mL"}, {"measurement": "FIC of ciprofloxacin", "setting": "P. aeruginosa PA14 [7]; [14]", "value": 1}, {"measurement": "FICI, catechol", "setting": "P. aeruginosa PA14 [7]; [15]", "value": "0.5*"}, {"measurement": "FICI, gallic acid", "setting": "P. aeruginosa PA14 [7]; [16]", "value": "0.5*"}, {"measurement": "FIC, catechol", "setting": "P. aeruginosa PA14 [7]; [17]", "value": 0.25}, {"measurement": "FIC, gallic acid", "setting": "P. aeruginosa PA14 [7]; [18]", "value": 0.25}, {"measurement": "FICI", "setting": "P. aeruginosa PA14 [7]; [19]", "value": 2}, {"measurement": "FIC of compound", "setting": "P. aeruginosa PA14 [7]; [20]", "value": 1}, {"measurement": "FIC of ciprofloxacin", "setting": "P. aeruginosa PAO1 [8]; [14]", "value": 0.5}, {"measurement": "FICI, catechol", "setting": "P. aeruginosa PAO1 [8]; [15]", "value": "0.37*"}, {"measurement": "FICI, gallic acid", "setting": "P. aeruginosa PAO1 [8]; [16]", "value": "0.37*"}, {"measurement": "FIC, catechol", "setting": "P. aeruginosa PAO1 [8]; [17]", "value": 0.25}, {"measurement": "FIC, gallic acid", "setting": "P. aeruginosa PAO1 [8]; [18]", "value": 0.13}, {"measurement": "FICI", "setting": "P. aeruginosa PAO1 [8]; [19]", "value": 1.01}, {"measurement": "FIC of compound", "setting": "P. aeruginosa PAO1 [8]; [20]", "value": 0.51}, {"measurement": "FIC of ciprofloxacin", "setting": "P. mirabilis HI4320 [11]; [14]", "value": 0.5}, {"measurement": "FICI, catechol", "setting": "P. mirabilis HI4320 [11]; [15]", "value": "0.5*"}, {"measurement": "FICI, gallic acid", "setting": "P. mirabilis HI4320 [11]; [16]", "value": "0.37*"}, {"measurement": "FIC, catechol", "setting": "P. mirabilis HI4320 [11]; [17]", "value": 0.25}, {"measurement": "FIC, gallic acid", "setting": "P. mirabilis HI4320 [11]; [18]", "value": 0.13}, {"measurement": "FICI", "setting": "P. mirabilis HI4320 [11]; [19]", "value": 1.5}, {"measurement": "FIC of compound", "setting": "P. mirabilis HI4320 [11]; [20]", "value": 1}, {"measurement": "FIC of ciprofloxacin", "setting": "E. coli CFT073 [12]; [14]", "value": 1}, {"measurement": "FICI, catechol", "setting": "E. coli CFT073 [12]; [15]", "value": "0.5*"}, {"measurement": "FICI, gallic acid", "setting": "E. coli CFT073 [12]; [16]", "value": "0.5*"}, {"measurement": "FIC, catechol", "setting": "E. coli CFT073 [12]; [17]", "value": 0.25}, {"measurement": "FIC, gallic acid", "setting": "E. coli CFT073 [12]; [18]", "value": 0.25}, {"measurement": "FICI", "setting": "E. coli CFT073 [12]; [19]", "value": 2}, {"measurement": "FIC of compound", "setting": "E. coli CFT073 [12]; [20]", "value": 1}]}]}
